One series concerns dengue NS2B/NS3 protease. On the set-up: method as in PMID 11581268. Particulars: cited from earlier work.
A further series relates to DENV2 protease. The arrangement: method as in PMID 16621533. Particulars: cited from earlier work; for inhibition of protease activity: 80 ppm (200 μM) ref 21; for Ki: protease assay ref 21.
Series [1] can be described thus: Solubility of compounds for screening (DMSO stock). Particulars: needed 10% v/v DMSO in the assay. The format is physicochemical.
The target in series [2] is T1, NS2B/NS3 protease (Dengue virus type 2, UniProt P14340).
T1 construct: active site of the serine protease domain of the NS2B/NS3 protease; made in house; host or cells: Escherichia coli XL 1-Blue MRF
Briefly: Protease assay using fluorogenic peptide substrate (BOC-Gly-Arg-Arg-AMC). The format is biochemical. Here is the method: Dengue NS2B/NS3 protease enzyme was expressed and purified as previously described. Briefly, NS2B/NS3 expression plasmid was propagated in Escherichia coli strain XL 1-Blue MRF (Agilent Technologies, Santa Clara, CA).The enzyme was isolated and purified using Ni^2+-NTA (nickel-nitrilotriacetic acid) resin-based column. The specific proteolytic activity of NS2B/NS3 protease was determined using similar formula as published for other proteases. Protease assay using fluorogenic peptide susbtrate (BOC-Gly-Arg-Arg-AMC) was also used to determine the NS2B/NS3 inhibition activities of the controls and derivatives. […] Cleavage of the substrate by NS2B/NS3 protease and detection of the fluorescence signal were determined using Envision 2104 Multilabel Plate Reader (Perkin Elmer, Boston, MA, USA) at excitation and emission wavelength of 385 nm and 465 nm, respectively. […]
IC50 values were derived based on non-linear regression analysis computed using GraphPad Prism 5.0 (GraphPad Software, La Jolla, CA, USA). […] The zʹ factor was calculated as described by Zhang and co-workers. zʹ factor = 1–3×(σH+σL)/|μH−μL|, where σH and σL represent the standard deviations of the AlphaScreen® signal of the substrate in the absence (high signal, H) and presence (low signal, L) of the protease, and μH and μL represent the mean values of high signal and low signal, respectively. […]

Series [3] addresses T1, NS2B/NS3 protease. The series can be described thus: NS2B/NS3 protease inhibition assay using AlphaScreen beads. The format is biochemical. As to the method: The peptide substrate used in this assay has a known NS2B/NS3 cleavage site between lysine (K), and serine (S) (GRK ↓ SLT), and is a part of a sequence of dengue polyprotein precursor (NS3/NS4A) as reported by Khumtong and co-workers. The peptide substrate was tagged with a specific sequence ([…]) at N-terminal and polyhistidine at C-terminal. This specific sequence has a binding affinity towards StrepTactin®, an engineered streptavidin [37]. Glycine linkers were added on both sides of untagged peptide substrate (Fig. 1a and b). To determine the extent of N-terminal labelling on the peptide substrate, competitive displacement assay using AlphaScreen® TruHits Detection Kit (Perkin Elmer, USA) consisting of StrepTactin® donor beads and biotinylated acceptor beads was carried out. On the other hand, to ensure that the peptide substrate is adequately tagged with polyhistidine on the C-terminal, competitive binding assay using Histidine (Nickel Chelate) Detection Kit (Perkin Elmer, USA) was carried out. This kit comprises of both StrepTactin® donor beads and nickel chelate acceptor beads.
In general, AlphaScreen® experiments were carried out in white 384-well plates (Perkin Elmer, Boston, MA, USA) in a total reaction volume of 25 μL under subdued light. […] The 384-well plate was read using Envision 2104 Multilabel Plate Reader (Perkin Elmer, Boston, MA, USA) according to AlphaScreen® settings (excitation and emission wavelength at 680nm and 520-620nm, respectively). […] After incubating for 1 h, 5 μL of donor beads and acceptor beads were added, followed by 1 h incubation at room temperature prior to reading of signal. […] The optimum conditions were determined based on the maximum signal obtained from well containing peptide alone and minimum signal produced by well containing peptide substrate, enzyme and beads, indicating maximum cleavage of the NS2B/NS3 enzyme on the substrate and lowest background signal. […] Since the amount obtained for diversity 0713 was in minute quantity and was insufficient for subsequent testing, diversity 0713 was not used as control in this study. […]

These results are taken from article PMC6289942, “Development of a NS2B/NS3 protease inhibition assay using AlphaScreen® beads for screening of anti-dengue activities” (Heliyon, 2018).

Read-outs that look alike come from different tables or passages of the source. Where a SMILES comes first, the peptide text is derived from it. [ ]: non-standard residue; d: D form. The star is where a group is joined. Sta = CC(C)C[C@H](N)[C@@H](O)CC(=O)O; Isovaleryl = CC(C)CC(=O)* Bounds are passed on as bounds.

T1 sequence (P14340 1476-1653): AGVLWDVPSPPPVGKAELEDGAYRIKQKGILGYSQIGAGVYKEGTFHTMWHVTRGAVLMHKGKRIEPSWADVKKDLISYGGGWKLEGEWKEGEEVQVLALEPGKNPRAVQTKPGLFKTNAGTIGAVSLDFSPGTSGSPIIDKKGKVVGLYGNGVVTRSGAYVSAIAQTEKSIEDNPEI
T1 sequence (P14340 1346-1475): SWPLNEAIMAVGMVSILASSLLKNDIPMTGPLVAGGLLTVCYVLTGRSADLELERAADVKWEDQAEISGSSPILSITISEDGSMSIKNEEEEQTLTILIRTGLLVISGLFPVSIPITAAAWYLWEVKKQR

Turning to `Cl.NCCc1ccc(S(=O)(=O)F)cc1` [4-(2-aminoethyl) benzenesulfonyl fluoride.hydrochloride], the inhibition of enzyme in the series on dengue NS2B/NS3 protease (500 μM ref 59) is given as 20–30%. As for `Cl.N=C(N)c1ccc(CS(=O)(=O)F)cc1` [4-Amidinophenylmethanesulfonyl fluoride.hydrochloride], in the series on dengue NS2B/NS3 protease, the “enzyme inhibition (in words)” value is given as “no enzyme inhibition”.

By Ki is commonly meant a measure of affinity in units of concentration, obtained from inhibition or displacement. Turning to `CC(C)=CC[C@@H]1C(C)=CC[C@@H](c2ccccc2)[C@@H]1C(=O)c1c(O)cc(O)cc1O` [4-hydroxypanduratin A], in the series on DENV2 protease, the “inhibition of protease activity” value is 65–80% and the Ki is 21 µM. For the molecule `Nc1nc(SCc2ccccc2)c2[nH]cnc2n1` [Compound 8, 6-(benzylsulfanyl)-9H-purin-2-amine], in series [1], the “solubility (in words)” value is given as “low solubility”. Same read-out and setting: the result for `Nc1nc(SCc2ccccc2)c2ncn(Cc3ccccc3)c2n1` [Compound 9, 9-benzyl-6-(benzylsulfanyl)-9H-purin-2-amine] reads “low solubility”; that for `c1ccc(CNc2nc(SCc3ccccc3)c3ncn(Cc4ccccc4)c3n2)cc1` [Compound 10, N, 9-dibenzyl-6-(benzylsulfanyl)-9H-purin-2-amine], “low solubility”. The same measure, in the same setting: the result for `c1ccc(CSc2nc(N(Cc3ccccc3)Cc3ccccc3)nc3c2ncn3Cc2ccccc2)cc1` [Compound 11, N, N, 9-tribenzyl-6-(benzylsulfanyl)-9H-purin-2-amine] reads “low solubility”; that for `Fc1ccc(C=Nc2nc(S)c3nc[nH]c3n2)cc1` [Compound 12, 2-(4-fluorobenzylideneamino)-9H-purine-6-thiol], “low solubility”. In the case of `Cc1ccc(S(=O)(=O)N[C@@H](CCCCN)C(=O)CCl)cc1.Cl` [N-Tosyl-L-lysine chloromethyl ketone.hydrochloride], the “enzyme inhibition (in words)” value with dengue NS2B/NS3 protease is reported as “no enzyme inhibition”. For `Cc1ccc(S(=O)(=O)N[C@@H](Cc2ccccc2)C(=O)CCl)cc1` [N-Tosyl-L-phenylalanine chloromethyl ketone], the inhibition of enzyme with dengue NS2B/NS3 protease (1 mM ref 59) is 20–30%. Usually IC50 stands for the concentration at which inhibition is half-maximal. Molecule `COc1cc(O)c(C(=O)[C@@H]2[C@H](CC=C(C)C)C(C)=CC[C@H]2c2ccccc2)c(O)c1` [Panduratin A] returned an IC50 on NS2B/NS3 protease [2] of 211 µM. This molecule returned an IC50 against NS2B/NS3 protease [3] of more than 100 µM. On NS2B/NS3 protease [3] (100 μM, AlphaScreen assay, read-out: maximum inhibition at the highest concentration tested), the inhibition at 100 µM was more than 50%. In addition, in the series on DENV2 protease, the “inhibition of protease activity” value is reported as 65–80% and the Ki is 25 µM. Turning to `N=C(N)c1ccccc1` [benzamidine], the “enzyme inhibition (in words)” value in the series on dengue NS2B/NS3 protease is “no enzyme inhibition”.

For `CC(=O)N[C@@H](CC(C)C)C(=O)N[C@@H](CC(C)C)C(=O)N[C@H](C=O)CCCNC(=N)N` [leupeptin], the “enzyme inhibition (in words)” value with dengue NS2B/NS3 protease is listed as “no enzyme inhibition”. Turning to `CC(C)CC(=O)N[C@H](C(=O)N[C@H](C(=O)N[C@@H](CC(C)C)[C@@H](O)CC(=O)N[C@@H](C)C(=O)N[C@@H](CC(C)C)[C@@H](O)CC(=O)O)C(C)C)C(C)C` [pepstatin A] (Isovaleryl-VV[Sta]A[Sta]-OH), in the series on dengue NS2B/NS3 protease, the “enzyme inhibition (in words)” value is on record as “no enzyme inhibition”. With `O=S(=O)(F)Cc1ccccc1` [phenylmethylsulfonyl fluoride], in the series with dengue NS2B/NS3 protease, the “enzyme inhibition (in words)” value is “no enzyme inhibition”. For Aprotinin, the IC50 is 0.15 µM at NS2B/NS3 protease [2] (protease assay, fluorogenic substrate, 1 h at 37 °C, read-out: IC50); 0.35 µM on NS2B/NS3 protease [3] (AlphaScreen assay, read-out: IC50); 0.065 µM in the series on dengue NS2B/NS3 protease (published value, different assay system ref 59).

B1: soybean trypsin inhibitor: serine protease inhibitor (protein, UniProt P01070 25-205, looked up)
Trypsin inhibitor A: DFVLDNEGNPLENGGTYYILSDITAFGGIRAAPTGNERCPLTVVQSRNELDKGIGTIISSPYRIRFIAEGHPLSLKFDSFAVIMLCVGIPTEWSVVEDLPEGPAVKIGENKDAMDGWFRLERVSDDEFNNYKLVFCPQQAEDDKCGDIGISIDHDDGTRRLVVSKNKPLVVQFQKLDKESL
Regarding B1, the “enzyme inhibition (in words)” value in the series on dengue NS2B/NS3 protease is “no enzyme inhibition”.
